Test results reported in patent US8741934B2, “Inhibitors of ion channels” (Pfizer Limited, priority 2007, dated 2014).

Biological target: T1, hSCN3A sodium channels (Homo sapiens, UniProt Q9NY46)
T1 construct: expressed in transfected cells
Experiment: hSCN3A electrophysiology, Ionworks Quattro automated platform (Table C)
Type: cell-based
Details: for inhibition at 3 µM / SCN3A % INHIB HTS IWQ 3 μM: 3 μM compound; for inhibition at 3 µM: read-out: SCN3A % INHIB HTS IWQ 3 μM; for inhibition at 10 µM / SCN3A % INHIB HTS IWQ 10 μM: 10 μM compound; for inhibition at 10 µM: read-out: SCN3A % INHIB HTS IWQ 10 μM
Procedure: Human Embryonic Kidney (HEK) cells were transfected with an hSCN3A construct using lipofectamine reagent (Invitrogen), using standard techniques. […] Clones were screened for expression using the whole-cell voltage-clamp technique.
HEK cells stably transfected with hSCN3A were maintained in DMEM medium supplemented with 10% heat-inactivated fetal bovine serum and 400 μg/ml G418 sulfate in an incubator at 37° C. with a humidified atmosphere of 10% CO2. […] For electrophysiological studies, cells were removed from the culture flask by brief trypsinization and replated at low density onto glass cover slips. Cells were typically used for electrophysiological experiments within 24 to 72 h after plating.
Electrophysiological assays were also conducted using the Ionworks Quattro automated electrophysiological platform (Molecular Devices Corp) (Table C). Intracellular and extracellular solutions were as described above with the following changes, 100 μg/ml amphotericin was added to the intracellular solution to perforate the membrane and allow electrical access to the cells. hSCN3A cells were grown and harvested as for PatchXpress and cells were resuspended in extracellular solution at a concentration of 3-4×10^6 cells/ml. The onboard liquid handling facility of the Ionworks Quattro was used for dispensing cells and application of test compounds. A voltage protocol was then applied that comprised of a voltage step to fully inactivate the sodium channels, followed by a brief hyperpolarized recovery period to allow partial recovery from inactivation for unblocked sodium channels, followed by a test depolarized voltage step to assess magnitude of inhibition by test compound. Compound effect was determined based on current amplitude difference between the pre-compound addition and post-compound addition scans.

T1 sequence (Q9NY46 whole entry): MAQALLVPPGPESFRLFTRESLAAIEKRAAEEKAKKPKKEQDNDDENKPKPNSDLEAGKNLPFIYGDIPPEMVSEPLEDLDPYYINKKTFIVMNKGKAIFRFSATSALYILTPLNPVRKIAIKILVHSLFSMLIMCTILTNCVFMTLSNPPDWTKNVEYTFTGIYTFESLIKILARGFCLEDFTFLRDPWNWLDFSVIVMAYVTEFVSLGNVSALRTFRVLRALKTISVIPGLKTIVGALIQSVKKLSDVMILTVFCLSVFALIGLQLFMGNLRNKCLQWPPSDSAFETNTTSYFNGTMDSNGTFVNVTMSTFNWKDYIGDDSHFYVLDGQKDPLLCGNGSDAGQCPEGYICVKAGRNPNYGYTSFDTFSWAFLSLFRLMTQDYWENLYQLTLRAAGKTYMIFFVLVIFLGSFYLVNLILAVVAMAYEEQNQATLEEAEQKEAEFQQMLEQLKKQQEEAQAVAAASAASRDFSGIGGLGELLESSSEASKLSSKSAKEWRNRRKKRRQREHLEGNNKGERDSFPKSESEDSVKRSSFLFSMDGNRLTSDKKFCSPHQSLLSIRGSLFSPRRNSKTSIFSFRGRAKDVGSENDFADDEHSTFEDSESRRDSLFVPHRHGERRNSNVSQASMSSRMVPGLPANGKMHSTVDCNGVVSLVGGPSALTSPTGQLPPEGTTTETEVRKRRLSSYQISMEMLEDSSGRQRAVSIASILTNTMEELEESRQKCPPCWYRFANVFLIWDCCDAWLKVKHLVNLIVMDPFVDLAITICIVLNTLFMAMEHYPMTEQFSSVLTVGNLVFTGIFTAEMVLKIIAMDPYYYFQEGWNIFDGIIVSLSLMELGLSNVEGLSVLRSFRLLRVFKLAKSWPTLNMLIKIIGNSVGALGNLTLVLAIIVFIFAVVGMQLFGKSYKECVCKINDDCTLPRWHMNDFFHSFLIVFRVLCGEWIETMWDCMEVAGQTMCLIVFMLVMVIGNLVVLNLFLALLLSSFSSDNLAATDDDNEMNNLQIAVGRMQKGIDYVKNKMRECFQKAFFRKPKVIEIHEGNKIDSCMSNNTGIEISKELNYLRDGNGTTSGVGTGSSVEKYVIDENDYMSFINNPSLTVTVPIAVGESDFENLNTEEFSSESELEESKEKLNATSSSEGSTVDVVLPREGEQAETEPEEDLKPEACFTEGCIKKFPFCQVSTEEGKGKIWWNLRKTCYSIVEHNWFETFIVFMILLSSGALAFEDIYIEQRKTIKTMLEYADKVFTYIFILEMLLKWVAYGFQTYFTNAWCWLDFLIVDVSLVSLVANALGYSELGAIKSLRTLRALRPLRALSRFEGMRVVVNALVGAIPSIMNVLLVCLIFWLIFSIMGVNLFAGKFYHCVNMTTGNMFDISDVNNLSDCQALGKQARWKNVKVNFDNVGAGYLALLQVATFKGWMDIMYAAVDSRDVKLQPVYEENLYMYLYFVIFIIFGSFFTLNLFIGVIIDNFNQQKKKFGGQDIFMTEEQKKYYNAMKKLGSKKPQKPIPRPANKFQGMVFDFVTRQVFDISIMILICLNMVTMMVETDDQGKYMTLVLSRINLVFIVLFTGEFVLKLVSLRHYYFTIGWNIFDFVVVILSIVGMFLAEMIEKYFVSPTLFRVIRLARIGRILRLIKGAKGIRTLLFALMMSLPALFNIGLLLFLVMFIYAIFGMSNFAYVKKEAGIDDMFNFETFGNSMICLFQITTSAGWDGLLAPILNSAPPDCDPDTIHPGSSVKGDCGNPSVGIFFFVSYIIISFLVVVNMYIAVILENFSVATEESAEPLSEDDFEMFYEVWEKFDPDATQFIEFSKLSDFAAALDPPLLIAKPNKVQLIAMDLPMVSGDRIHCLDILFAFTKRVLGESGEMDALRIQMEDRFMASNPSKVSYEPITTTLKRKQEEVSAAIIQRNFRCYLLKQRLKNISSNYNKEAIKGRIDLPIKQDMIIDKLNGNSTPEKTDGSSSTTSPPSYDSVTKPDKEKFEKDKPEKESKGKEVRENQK

Compound | inhibition at 3 µM [%] | inhibition at 10 µM [%] | SCN3A % INHIB HTS IWQ 3 μM [%] | SCN3A % INHIB HTS IWQ 10 μM [%]
CC(CNC(=O)c1ccc(S(=O)(=O)Nc2nccs2)cc1)c1ccccc1 (stereo not drawn) [Example 155, N-(2-phenylpropyl)-4-[(1,3-thiazol-2-ylamino)sulfonyl]benzamide] | 30.1 | 40.8 | – | –
CC(Cc1ccc(F)c(F)c1)NC(=O)c1ccc(S(=O)(=O)Nc2nccs2)cc1 (stereo not drawn) [Example 151, N-[2-(3,4-difluorophenyl)-1-methylethyl]-4-[(1,3-thiazol-2-ylamino)sulfonyl]benzamide] | 17.4 | 12.7 | – | –
CC(C)(NC(=O)c1ccc(S(=O)(=O)Nc2nccs2)cc1)c1cccc(Cl)c1 [Example 127, N-[1-(3-chlorophenyl)-1-methylethyl]-4-[(1,3-thiazol-2-ylamino)sulfonyl]benzamide] | 28.9 | 28.7 | – | –
C[C@@H](c1ccccc1)N(C)C(=O)c1ccc(S(=O)(=O)Nc2nccs2)cc1 [Example 256, N-methyl-N-[(1S)-1-phenylethyl]-4-[(1,3-thiazol-2-yl-amino)sulfonyl]benzamide] | 1.49 | 6.44 | – | –
Cc1ccnc(CC2CCCN2C(=O)c2ccc(S(=O)(=O)Nc3nccs3)cc2)c1 (stereo not drawn) [Example 248, 4-({2-[(4-Methylpyridin-2-yl)methyl]pyrrolidin-1-yl}carbonyl)-N-1,3-thiazol-2-yl-benzenesulfonamide] | 20.1 | 14.7 | – | –
O=C(c1ccc(S(=O)(=O)Nc2nccs2)cc1)N1CCCCCC1c1ccccc1 (stereo not drawn) [Example 268, 4-[(2-Phenylazepan-1-yl)carbonyl]-N-1,3-thiazol-2-yl-benzenesulfonamide] | 11 | 10.6 | – | –
O=C(c1ccc(S(=O)(=O)Nc2nccs2)cc1)N1CCOC(CN2Cc3ccccc3C2=O)C1 (stereo not drawn) [Example 210, 4-({2-[(1-Oxo-1,3-dihydro-2H-isoindol-2-yl)methyl]morpholin-4-yl}carbonyl)-N-1,3-thiazol-2-ylbenzenesulfonamide] | 4.03 | 11.9 | – | –
O=C(NCc1c(F)cccc1Cl)c1ccc(S(=O)(=O)Nc2nccs2)cc1 [Example 86, N-(2-chloro-6-fluorobenzyl)-4-[(1,3-thiazol-2-ylamino)sulfonyl]benzamide] | 22.3 | 26.3 | – | –
COc1ccc(OC2CCCN(C(=O)c3ccc(S(=O)(=O)Nc4nccs4)cc3)C2)cc1 (stereo not drawn) [Example 203, 4-{[3-(4-Methoxyphenoxy)piperidin-1-yl]carbonyl}-N-1,3-thiazol-2-yl-benzenesulfonamide] | 13.1 | 17.7 | – | –
O=C(c1ccc(S(=O)(=O)Nc2nccs2)cc1)N1CCCC1Cc1ccccc1F (stereo not drawn) [Example 233, 4-{[2-(2-Fluorobenzyl)pyrrolidin-1-yl]carbonyl}-N-1,3-thiazol-2-yl-benzenesulfonamide] | 18.5 | 15.9 | – | –
COc1cccc(CC2CCCN2C(=O)c2ccc(S(=O)(=O)Nc3nccs3)cc2)c1 (stereo not drawn) [Example 240, 4-{[2-(3-Methoxybenzyl)pyrrolidin-1-yl]carbonyl}-N-1,3-thiazol-2-yl-benzenesulfonamide] | 14.4 | 20.2 | – | –
N-[1-(3-methylbenzyl)cyclopropyl] 4-[(1,3-thiazol-2-ylamino)sulfonyl]benzamide [Example 159] | – | – | 28.7 | 35.85
O=C(NCCOc1ccccc1F)c1ccc(S(=O)(=O)Nc2nccs2)cc1 [Example 167, N-[2-(2-fluorophenoxy)ethyl]-4-[(1,3-thiazol-2-ylamino)sulfonyl]benzamide] | 30.8 | 43 | – | –
O=C(c1ccc(S(=O)(=O)Nc2nccs2)cc1)N1CCCO[C@H]1Cc1ccccc1 [Example 214, 4-{[(2S)-2-benzyl-1,3-oxazinan-3-yl]carbonyl}-N-1,3-thiazol-2-yl-benzenesulfonamide] | 9.25 | 4.51 | – | –
COc1ccccc1CC1(NC(=O)c2ccc(S(=O)(=O)Nc3nccs3)cc2)CC1 [Example 157, N-[1-(2-methoxybenzyl)cyclopropyl]-4-[(1,3-thiazol-2-ylamino)sulfonyl]benzamide] | 11.3 | 15.3 | – | –
O=C(c1ccc(S(=O)(=O)Nc2nccs2)cc1)N1CCCC1c1ccccc1 (stereo not drawn) [Example 205, 4-[(2-Phenylpyrrolidin-1-yl)carbonyl]-N-1,3-thiazol-2-yl-benzenesulfonamide] | 11.3 | 27.3 | – | –
O=C(c1ccc(S(=O)(=O)Nc2nccs2)cc1)N1CCCC(OCc2ccccc2)C1 (stereo not drawn) [Example 211, 4-{[3-(benzyloxy)piperidin-1-yl]carbonyl}-N-1,3-thiazol-2-yl-benzenesulfonamide] | 2.5 | 10.1 | – | –

Compound | inhibition at 3 µM [%] | inhibition at 10 µM [%] | SCN3A % INHIB HTS IWQ 3 μM [%] | SCN3A % INHIB HTS IWQ 10 μM [%]
O=C(c1ccc(S(=O)(=O)Nc2nccs2)cc1)N1CCCCC1c1cccc(F)c1 (stereo not drawn) [Example 221, 4-{[2-(3-Fluorophenyl)piperidin-1-yl]carbonyl}-N-1,3-thiazol-2-yl-benzenesulfonamide] | 19.9 | 21.8 | – | –
CCOc1ccccc1CNC(=O)c1ccc(S(=O)(=O)Nc2nccs2)cc1 [Example 89, N-(2-ethoxybenzyl)-4-[(1,3-thiazol-2-ylamino)sulfonyl]benzamide] | 14 | 48.2 | – | –
O=C(NC(CO)c1ccccc1Cl)c1ccc(S(=O)(=O)Nc2nccs2)cc1 (stereo not drawn) [Example 56, N-[1-(2-chlorophenyl)-2-hydroxyethyl]-4-[(1,3-thiazol-2-ylamino)sulfonyl]benzamide] | 3.23 | 2.53 | – | –
CC(c1ccccc1)N(CCO)C(=O)c1ccc(S(=O)(=O)Nc2nccs2)cc1 (stereo not drawn) [Example 229, N-(2-hydroxyethyl)-N-(1-phenylethyl)-4-[(1,3-thiazol-2-yl-amino)sulfonyl]benzamide] | 12.5 | 3.91 | – | –
O=C1[C@@H]2CC[C@@H]3[C@H]1C(c1ccccc1)N(C(=O)c1ccc(S(=O)(=O)Nc4nccs4)cc1)[C@H]3C2 (stereo partly drawn) [Example 192, 4-{[(3S,3aR,6R,7aS)-8-oxo-2-phenyloctahydro-1H-3,6-methanoindol-1-yl]carbonyl}-N-1,3-thiazol-2-yl-benzenesulfonamide] | 6.18 | 26 | – | –
CCc1ccc(C)nc1NC(=O)c1ccc(S(=O)(=O)Nc2nccs2)cc1 [Example 178, N-(3-ethyl-6-methylpyridin-2-yl)-4-[(1,3-thiazol-2-ylamino)sulfonyl]benzamide] | 2.71 | 1.55 | – | –
O=C(NCCc1ccc(F)cc1)c1ccc(S(=O)(=O)Nc2nccs2)cc1 [Example 102, N-[2-(4-fluorophenyl)ethyl]-4-[(1,3-thiazol-2-ylamino)sulfonyl]benzamide] | 22.4 | 37.2 | – | –
Cc1cccc(CC2CCCCN2C(=O)c2ccc(S(=O)(=O)Nc3nccs3)cc2)n1 (stereo not drawn) [Example 242] | – | – | 13.78 | 8.48
Cc1ccc(CNC(=O)c2ccc(S(=O)(=O)Nc3nccs3)cc2)cc1 [Example 98, N-(4-methylbenzyl)-4-[(1,3-thiazol-2-ylamino)sulfonyl]benzamide] | 28.1 | 36.6 | – | –
Cc1cccc(CNC(=O)c2ccc(S(=O)(=O)Nc3nccs3)cc2)c1 [Example 71, N-(3-methylbenzyl)-4-[(1,3-thiazol-2-ylamino)sulfonyl]benzamide] | 38.8 | 37.1 | – | –
O=C(NCc1cccc(OC(F)(F)F)c1)c1ccc(S(=O)(=O)Nc2nccs2)c(Cl)c1 [Example 285, 3-Chloro-4-[(1,3-thiazol-2-ylamino)sulfonyl]-N-[3-(trifluoromethoxy)benzyl]benzamide] | 15.1 | 39.1 | – | –
CCN(C(=O)c1ccc(S(=O)(=O)Nc2nccs2)cc1)C(C)C(=O)c1ccccc1 (stereo not drawn) [Example 209, N-ethyl-N-(1-methyl-2-oxo-2-phenylethyl)-4-[(1,3-thiazol-2-yl-amino)sulfonyl]benzamide] | 5.72 | -5.23 | – | –
COc1cccc(CCNC(=O)c2ccc(S(=O)(=O)Nc3nccs3)cc2)c1 [Example 166, N-[2-(3-methoxyphenyl)ethyl]-4-[(1,3-thiazol-2-ylamino)sulfonyl]benzamide] | 30.6 | 36.3 | – | –
O=C(NCc1cccc(C(F)(F)F)c1)c1ccc(S(=O)(=O)Nc2nccs2)c(Cl)c1 [Example 288, 3-Chloro-4-[(1,3-thiazol-2-ylamino)sulfonyl]-N-[3-(trifluoromethyl)benzyl]benzamide] | 4.38 | 13.4 | – | –
O=C(NCc1ccccc1)c1ccc(S(=O)(=O)Nc2nccs2)cc1 [Example 171, N-benzyl-4-[(1,3-thiazol-2-ylamino)sulfonyl]benzamide] | 39.5 | 52.8 | – | –
CN(C(=O)c1ccc(S(=O)(=O)Nc2nccs2)cc1)C(Cc1ccccc1)c1ccccc1 (stereo not drawn) [Example 251, N-(1,2-diphenylethyl)-N-methyl-4-[(1,3-thiazol-2-ylamino)sulfonyl]benzamide] | 19.9 | 0.8 | – | –
